Assay results taken from ChEMBL document CHEMBL1909046, “DrugMatrix in vitro pharmacology data”.
pIC50: −log10 of the molar value.

How the values were obtained:
[1] = molecular target: T1, Neuropeptide Y receptor type 2 (Homo sapiens, UniProt P49146); format: cell membranes, Membrane; settings: kan-ts; also: in other assays of this panel Not Active means under 50% inhibition at 10 µM
T1 sequence (P49146 whole entry): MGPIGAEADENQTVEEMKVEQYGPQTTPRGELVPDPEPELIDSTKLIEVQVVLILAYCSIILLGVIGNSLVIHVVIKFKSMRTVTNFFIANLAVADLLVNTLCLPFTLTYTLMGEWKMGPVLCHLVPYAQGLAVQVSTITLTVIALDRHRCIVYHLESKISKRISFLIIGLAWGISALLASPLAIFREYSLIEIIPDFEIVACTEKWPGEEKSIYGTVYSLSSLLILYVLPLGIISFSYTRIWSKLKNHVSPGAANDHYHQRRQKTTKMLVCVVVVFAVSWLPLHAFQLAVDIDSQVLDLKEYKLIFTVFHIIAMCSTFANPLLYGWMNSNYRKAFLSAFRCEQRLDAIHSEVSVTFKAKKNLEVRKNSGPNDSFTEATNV

[2] = molecular target: T2, Nitric oxide synthase, inducible (Mus musculus, UniProt P29477); set-up: species or system Escherichia coli;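 also: inhibition of iNOS enzyme activity measured with L-arginine as substrate; in other assays of this panel Not Active means under 50% inhibition at 10 µM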
T2 sequence (P29477 whole entry): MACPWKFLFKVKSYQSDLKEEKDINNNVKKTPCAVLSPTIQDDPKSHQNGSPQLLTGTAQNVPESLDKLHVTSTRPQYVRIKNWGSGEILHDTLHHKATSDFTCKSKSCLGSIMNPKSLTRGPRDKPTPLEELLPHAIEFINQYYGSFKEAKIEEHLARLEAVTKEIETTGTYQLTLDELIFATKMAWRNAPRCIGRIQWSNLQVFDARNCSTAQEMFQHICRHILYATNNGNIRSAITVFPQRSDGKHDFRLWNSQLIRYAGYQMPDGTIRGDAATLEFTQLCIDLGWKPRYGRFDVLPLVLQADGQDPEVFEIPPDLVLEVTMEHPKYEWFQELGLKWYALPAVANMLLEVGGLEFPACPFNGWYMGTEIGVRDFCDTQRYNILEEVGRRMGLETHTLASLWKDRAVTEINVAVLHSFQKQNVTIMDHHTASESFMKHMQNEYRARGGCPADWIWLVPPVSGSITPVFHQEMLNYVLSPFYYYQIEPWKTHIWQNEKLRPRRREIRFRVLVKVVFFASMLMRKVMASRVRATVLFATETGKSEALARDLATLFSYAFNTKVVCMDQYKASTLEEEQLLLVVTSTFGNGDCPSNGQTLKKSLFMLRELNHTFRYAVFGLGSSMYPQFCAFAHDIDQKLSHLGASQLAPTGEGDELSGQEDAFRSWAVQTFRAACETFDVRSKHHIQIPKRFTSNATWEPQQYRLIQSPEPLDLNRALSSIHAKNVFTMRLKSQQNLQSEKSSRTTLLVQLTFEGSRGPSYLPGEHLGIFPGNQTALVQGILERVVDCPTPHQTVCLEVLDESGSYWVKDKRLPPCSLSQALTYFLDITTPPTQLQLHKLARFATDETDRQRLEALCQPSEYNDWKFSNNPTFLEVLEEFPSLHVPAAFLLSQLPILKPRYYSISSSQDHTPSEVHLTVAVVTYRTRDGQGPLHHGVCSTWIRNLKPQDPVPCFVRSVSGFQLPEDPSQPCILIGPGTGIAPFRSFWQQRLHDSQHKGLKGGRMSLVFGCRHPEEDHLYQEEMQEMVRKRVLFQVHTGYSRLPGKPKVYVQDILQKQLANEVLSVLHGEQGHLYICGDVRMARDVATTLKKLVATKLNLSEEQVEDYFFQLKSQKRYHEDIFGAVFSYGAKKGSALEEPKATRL

Cathepsin G = molecular target: T3, Cathepsin G (Homo sapiens, UniProt P08311); test: biochemical; format: tissue-based, Neutrophil; settings: for IC50: neutrophil;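 as to all read-outs here: inhibition of Cathepsin G enzyme activity, tested on an AMC-conjugated peptide substrate; in other assays of this panel Not Active means under 50% inhibition at 10 µM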
T3 sequence (P08311 whole entry): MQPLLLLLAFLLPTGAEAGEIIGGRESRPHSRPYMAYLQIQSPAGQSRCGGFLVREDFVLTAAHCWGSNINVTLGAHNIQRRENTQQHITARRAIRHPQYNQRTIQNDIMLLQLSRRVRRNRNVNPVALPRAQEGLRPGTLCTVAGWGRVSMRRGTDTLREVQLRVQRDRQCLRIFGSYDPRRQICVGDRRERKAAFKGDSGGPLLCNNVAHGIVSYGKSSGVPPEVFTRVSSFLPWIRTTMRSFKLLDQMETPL

[3] = molecular target: Protein kinase C alpha type (Homo sapiens, UniProt P17252); format: cell-based; settings: sf9;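 also: inhibition of PKCalpha kinase activity measured in an enzyme assay with histone as the phosphorylation substrate; in other assays of this panel Not Active means under 50% inhibition at 10 µM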
[4] = molecular target: T4, Cholecystokinin receptor type A (Homo sapiens, UniProt P32238); format: cell membranes, Membrane; settings: 1321-n1; also: in other assays of this panel Not Active means under 50% inhibition at 10 µM
T4 sequence (P32238 whole entry): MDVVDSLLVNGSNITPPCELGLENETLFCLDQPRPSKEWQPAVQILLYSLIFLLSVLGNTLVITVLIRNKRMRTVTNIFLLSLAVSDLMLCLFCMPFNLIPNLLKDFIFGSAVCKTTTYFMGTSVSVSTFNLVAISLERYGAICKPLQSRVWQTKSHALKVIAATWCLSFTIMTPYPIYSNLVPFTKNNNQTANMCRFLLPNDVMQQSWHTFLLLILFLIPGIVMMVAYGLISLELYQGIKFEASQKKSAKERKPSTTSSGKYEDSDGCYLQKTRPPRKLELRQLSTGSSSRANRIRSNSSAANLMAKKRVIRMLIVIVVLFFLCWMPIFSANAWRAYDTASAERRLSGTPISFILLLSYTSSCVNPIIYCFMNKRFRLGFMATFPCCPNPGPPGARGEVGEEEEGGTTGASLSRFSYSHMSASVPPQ

[5] = molecular target: Aldo-keto reductase family 1 member B1 (Rattus norvegicus, UniProt P07943); test: biochemical; format: tissue-based, Lens of camera-type eye
Insulin receptor = Insulin receptor (Rattus norvegicus, UniProt P15127); format: cell membranes, Wistar, Liver, Membrane; also: in other assays of this panel Not Active means under 50% inhibition at 10 µM
Chain of Insulin receptor (P15127 27-759 limits assumed): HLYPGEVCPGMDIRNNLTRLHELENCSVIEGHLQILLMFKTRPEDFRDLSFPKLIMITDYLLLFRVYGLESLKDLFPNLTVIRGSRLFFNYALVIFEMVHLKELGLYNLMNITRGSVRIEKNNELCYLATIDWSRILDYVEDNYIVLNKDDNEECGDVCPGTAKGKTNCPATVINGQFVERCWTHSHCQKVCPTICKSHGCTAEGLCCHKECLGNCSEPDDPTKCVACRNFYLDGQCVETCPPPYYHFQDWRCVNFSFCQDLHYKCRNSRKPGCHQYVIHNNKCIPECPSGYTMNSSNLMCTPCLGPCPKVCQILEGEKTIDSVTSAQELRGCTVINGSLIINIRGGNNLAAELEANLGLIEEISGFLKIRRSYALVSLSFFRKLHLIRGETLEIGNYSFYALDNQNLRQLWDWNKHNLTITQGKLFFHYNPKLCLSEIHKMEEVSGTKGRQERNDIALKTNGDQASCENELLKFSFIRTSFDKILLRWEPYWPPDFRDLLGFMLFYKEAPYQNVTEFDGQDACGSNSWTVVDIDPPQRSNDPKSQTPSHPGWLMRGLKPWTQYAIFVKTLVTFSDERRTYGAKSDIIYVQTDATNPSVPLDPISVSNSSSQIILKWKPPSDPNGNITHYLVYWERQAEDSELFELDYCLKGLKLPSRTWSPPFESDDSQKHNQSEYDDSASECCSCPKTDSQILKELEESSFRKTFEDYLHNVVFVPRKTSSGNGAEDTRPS
Chain of Insulin receptor (P15127 764-1383 limits assumed): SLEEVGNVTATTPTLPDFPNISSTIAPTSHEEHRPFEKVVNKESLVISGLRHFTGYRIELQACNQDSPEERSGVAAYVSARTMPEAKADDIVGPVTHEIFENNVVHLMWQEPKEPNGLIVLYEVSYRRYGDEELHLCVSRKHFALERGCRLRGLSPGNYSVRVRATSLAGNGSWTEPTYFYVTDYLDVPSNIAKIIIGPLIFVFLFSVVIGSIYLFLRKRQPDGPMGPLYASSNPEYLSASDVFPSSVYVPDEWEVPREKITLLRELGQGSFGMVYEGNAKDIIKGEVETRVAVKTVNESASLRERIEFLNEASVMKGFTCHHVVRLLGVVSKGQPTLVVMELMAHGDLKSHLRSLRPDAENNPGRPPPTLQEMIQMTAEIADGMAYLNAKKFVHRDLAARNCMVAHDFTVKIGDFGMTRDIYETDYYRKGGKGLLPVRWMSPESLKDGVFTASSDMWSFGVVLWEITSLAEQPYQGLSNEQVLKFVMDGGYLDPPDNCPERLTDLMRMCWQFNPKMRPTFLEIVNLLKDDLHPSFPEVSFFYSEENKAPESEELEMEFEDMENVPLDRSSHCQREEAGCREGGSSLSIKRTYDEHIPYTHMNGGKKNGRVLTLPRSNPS

[6] = DRUGMATRIX: Glutamate, NMDA, Agonism radioligand binding (ligand: [3H] CGP-39653); format: cell membranes, Rattus norvegicus, Wistar, Cerebral cortex, Membrane; settings: Not Active = under 50% inhibition at 10 µM
[7] = molecular target: Delta-type opioid receptor (Homo sapiens, UniProt P41143); format: cell membranes, HEK293, Membrane; settings: hek293; also: in other assays of this panel Not Active means under 50% inhibition at 10 µM
Chain of Delta-type opioid receptor (P41143 whole entry): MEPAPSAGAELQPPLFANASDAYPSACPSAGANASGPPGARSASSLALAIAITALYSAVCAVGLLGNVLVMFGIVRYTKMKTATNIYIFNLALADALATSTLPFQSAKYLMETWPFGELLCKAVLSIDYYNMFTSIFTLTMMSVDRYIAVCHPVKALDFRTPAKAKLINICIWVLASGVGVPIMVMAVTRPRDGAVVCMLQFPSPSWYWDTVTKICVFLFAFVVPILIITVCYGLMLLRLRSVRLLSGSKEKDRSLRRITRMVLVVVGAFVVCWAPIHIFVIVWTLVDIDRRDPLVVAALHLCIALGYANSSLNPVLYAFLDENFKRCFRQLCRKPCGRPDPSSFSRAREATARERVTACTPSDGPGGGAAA

Compound | IC50 [1] | IC50 [2] | IC50 (Cathepsin G) | IC50 [3] | IC50 [4] | IC50 [5] | IC50 (Insulin receptor) | IC50 [6] | Ki [6] | IC50 [7] | pIC50 (Cathepsin G; read-out: IC50)
Cc1cn([C@H]2C=C[C@@H](CO)O2)c(=O)[nH]c1=O [STAVUDINE] | Not Active | Not Active | Not Active | Not Active | Not Active | Not Active | Not Active | Not Active | Not Active | Not Active | –
CN1C[C@H](CNC(=O)OCc2ccccc2)C[C@@H]2c3cccc4c3c(cn4C)C[C@H]21 [METERGOLINE] | Not Active | Not Active | Not Active | Not Active | Not Active | Not Active | Not Active | Not Active | Not Active | Not Active | –
CCN(CC)C(=S)SSC(=S)N(CC)CC | Not Active | Not Active | Not Active | Not Active | Not Active | Not Active | Not Active | Not Active | Not Active | Not Active | –
CC(C)(C)NC[C@H](O)COc1cccc2c1CCCC2=O [LEVOBUNOLOL] | Not Active | Not Active | Not Active | Not Active | Not Active | Not Active | Not Active | Not Active | Not Active | Not Active | –
Nc1nc(N)c2nc(-c3ccccc3)c(N)nc2n1 | Not Active | Not Active | – | Not Active | Not Active | Not Active | Not Active | Not Active | Not Active | Not Active | 5.13
Cc1ccc(S(=O)(=O)NC(=O)NN2CCCCCC2)cc1 [TOLAZAMIDE] | Not Active | Not Active | Not Active | Not Active | Not Active | Not Active | Not Active | Not Active | Not Active | Not Active | –
Cc1ccc(Cl)c(Nc2ccccc2C(=O)O)c1Cl [MECLOFENAMIC ACID] | Not Active | Not Active | Not Active | Not Active | Not Active | Not Active | Not Active | Not Active | Not Active | Not Active | –
CO[C@@H]1[C@@H](OC)[C@H](C)[C@@](O)(CC(=O)O)O[C@H]1[C@H](C)[C@H]1O[C@@]2(CC[C@@](C)([C@H]3CC[C@@](C)([C@@H]4O[C@@H]([C@H]5O[C@](C)(O)[C@H](C)C[C@@H]5C)C[C@@H]4O[C@@H]4C[C@H](OC)[C@@H](OC)[C@H](C)O4)O3)O2)C[C@H](O)[C@H]1C.N [MADURAMICIN] | Not Active | Not Active | Not Active | Not Active | Not Active | Not Active | Not Active | Not Active | Not Active | Not Active | –
CCC(C)(C)C(=O)O[C@H]1C[C@@H](C)C=C2C=C[C@H](C)[C@H](CC[C@@H]3C[C@@H](O)CC(=O)O3)[C@H]21 [SIMVASTATIN] | Not Active | Not Active | Not Active | Not Active | Not Active | Not Active | Not Active | Not Active | Not Active | Not Active | –
C#C[C@]1(O)CC[C@H]2[C@@H]3[C@H](C)CC4=C(CCC(=O)C4)[C@H]3CC[C@@]21C [TIBOLONE] | Not Active | Not Active | Not Active | Not Active | Not Active | Not Active | Not Active | Not Active | Not Active | Not Active | –
Cc1nnc(NS(=O)(=O)c2ccc(N)cc2)s1 [SULFAMETHIZOLE] | Not Active | Not Active | Not Active | Not Active | Not Active | Not Active | Not Active | Not Active | Not Active | Not Active | –
C[C@]12CCC(=O)C[C@@H]1CC[C@@H]1[C@@H]2CC[C@]2(C)[C@@H](O)CC[C@@H]12 [STANOLONE] | Not Active | Not Active | Not Active | Not Active | Not Active | Not Active | Not Active | Not Active | Not Active | Not Active | –
CO[C@@]12[C@H](COC(N)=O)C3=C(C(=O)C(C)=C(N)C3=O)N1C[C@@H]1N[C@@H]12 [MITOMYCIN] | Not Active | Not Active | Not Active | Not Active | Not Active | Not Active | Not Active | Not Active | Not Active | Not Active | –
Cc1[nH]c(=O)c(C#N)cc1-c1ccncc1 [MILRINONE] | Not Active | Not Active | Not Active | Not Active | Not Active | Not Active | Not Active | Not Active | Not Active | Not Active | –
CC(Cl)(Cl)Cl [TRICHLOROETHANE] | Not Active | Not Active | Not Active | Not Active | Not Active | Not Active | Not Active | Not Active | Not Active | Not Active | –
CC[C@H](C)C(=O)O[C@H]1CCC=C2C=C[C@H](C)[C@H](CC[C@@H]3C[C@@H](O)CC(=O)O3)[C@H]21 [MEVASTATIN] | Not Active | Not Active | Not Active | Not Active | Not Active | Not Active | Not Active | Not Active | Not Active | Not Active | –
CC(=O)O[C@]1(C(C)=O)CC[C@H]2[C@@H]3C[C@H](C)C4=CC(=O)CC[C@]4(C)[C@H]3CC[C@@]21C [MEDROXYPROGESTERONE ACETATE] | Not Active | Not Active | Not Active | Not Active | Not Active | Not Active | Not Active | Not Active | Not Active | Not Active | –
